Measurements: patent US11179437B2, “COP9 signalosome (CSN) complex modulators and uses thereof” (Yeda Research and Development Co. Ltd., priority 2017, dated 2021)

Columns and labels:
[1] = tested on: cells; experiment: Cell death in cells exposed to the C-terminal peptide; format: cell-based
[2] = tested on: HAP1 cells; experiment: Cell cycle analysis by flow cytometry (double thymidine block or asynchronous BrdU/propidium iodide); format: cell-based, human; conditions: WT cells expressing or exposed to the C-terminal CSNAP segment; release from double thymidine block (FIG. 9)
Protocol: UV treated cells were exposed to 5 J/m^2 dose at release, and fixed with ethanol at different time points. Cell cycle phases were assessed by flow cytometry (LSRII, BD Biosciences) following propidium iodide staining. Asynchronous cells were analyzed using propidium iodide and BrdU double staining. 10^5 cells were denatured after fixation using 2N HCl, 0.5% Triton X-100 in PBS for 30 minutes, neutralized in 0.1M Na2B4O7 pH8.5 and incubated with 5 μl of anti-BrdU-FITC (eBioscience 11-5071-41) 1% BSA, 0.5% Triton X-100 in PBS for 1 hour. Cells were washed in 1% BSA in PBS and resuspended in PBS containing 50 μg/ml propidium iodide and 50 μg/ml RNAse A, and analyzed in FACSAria Fusion flow cytometer (BD Biosciences).

With “DFFNDFEDLFDDDDIQ [C-terminal peptide, peptide comprising the C-terminal region of CSNAP, responsible for assembly into the CSN complex]” as the sequence, how does the “induction of cell death” value [1] read?
The value was “induce cell death”.

And the cell cycle progression [2]?
Its cell cycle progression is “capable of preventing cell cycle progression”.
